From PubChem BioAssay (NCI)
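Cells were grown in 96-well plates and exposed to each compound for 48 hours at five concentrations; endpoints were interpolated linearly between bracketing concentrations, or set to the highest concentration if not reached. TGI: total growth inhibition.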

Legend:
Experiment in all cases: growth of human tumour cells (NCI), 48 h
SF-268 CNS = test system: SF-268 CNS
SN12C renal = test system: SN12C renal
OVCAR-5 ovarian = test system: OVCAR-5 ovarian
K-562 leukemia = test system: K-562 leukemia
NCI-H226 lung = test system: NCI-H226 lung
M14 melanoma = test system: M14 melanoma
EKVX NSCLC = test system: EKVX NSCLC
U251 CNS = test system: U251 CNS
SK-MEL-2 melanoma = test system: SK-MEL-2 melanoma
SK-MEL-5 melanoma = test system: SK-MEL-5 melanoma
T-47D breast = test system: T-47D breast
MDA-MB-231 breast = test system: MDA-MB-231 breast

SMILES | TGI (SF-268 CNS) [µM] | TGI (SN12C renal) [µM] | TGI (OVCAR-5 ovarian) [µM] | TGI (K-562 leukemia) [µM] | TGI (NCI-H226 lung) [µM] | TGI (M14 melanoma) [µM] | TGI (EKVX NSCLC) [µM] | TGI (U251 CNS) [µM] | TGI (SK-MEL-2 melanoma) [µM] | TGI (SK-MEL-5 melanoma) [µM] | TGI (T-47D breast) [µM] | TGI (MDA-MB-231 breast) [µM]
CCOP1(=O)C=C(C)C(Cl)=C(C)C1 (stereo not drawn) | > 100 | 51.5 | > 100 | 90.5 | 59.9 | 70.9 | > 100 | 63.2 | 50.4 | > 100 |  | 
CC12CCC(=O)N1c1ccc([N+](=O)[O-])cc1N2 (stereo not drawn) | > 100 | > 100 |  | > 100 | > 100 | > 100 | > 100 | > 100 | > 100 | > 100 |  | 
COC(=O)c1cc2c(c3c1CC(Cc1ccccc1)C3=O)CCC2 (stereo not drawn) | > 100 | > 100 | > 100 | > 100 | > 100 | > 100 | > 100 | > 100 |  | > 100 | > 100 | > 100
CC1(C)CC(=O)C(/C(=N/NC(=S)NN)C(=O)Nc2nc3ccc([N+](=O)[O-])cc3s2)C(=O)C1 | > 100 | > 100 | > 100 | > 100 | > 100 | > 100 | > 100 | > 100 | > 100 | > 100 |  | 
CSC(=S)Nc1cccc(C)n1 | > 100 | > 100 | > 100 | > 100 | > 100 | > 100 | > 100 | > 100 | > 100 | > 100 | > 100 | > 100
C/C(=C\CBr)CCC(Br)C(C)(C)Cl (stereo not drawn) | > 100 | > 100 | > 100 | > 100 | > 100 | > 100 |  | > 100 | > 100 | > 100 |  | 
CN(C)C(=NCc1ccccc1)NC#N | > 100 | > 100 |  |  |  | > 100 | > 100 | > 100 | > 100 | > 100 |  | 
Oc1[nH]c2ccccc2c1N=NC(=S)Nc1ccccc1Cl | 56.9 | > 100 | > 100 | 81.4 | 53 | 14.9 | 77.9 | 55 | 64.8 | 15.8 | > 100 | 32
O=[N+]([O-])/C(C(Cl)=C(Cl)Cl)=C(/Cl)SCc1ccccc1 | 44.6 | 12.9 | 17.5 | 3.36 | 56.7 | 3.58 | 40.1 | 25.1 | 47.4 | 20.8 | 39.2 | 4.32
CC1CN=C(N(Cc2ccccc2)C(=O)Nc2ccc(Cl)c(Cl)c2)S1 (stereo not drawn) | > 100 | 69.3 | > 100 | > 100 |  | 48.8 | > 100 | > 100 | 68.3 | 51.9 | > 100 | 86.6
C/C=C/C#CC#C/C=C/C=C/C(O)CCO (stereo not drawn) | > 23.1 | > 23.1 | > 23.1 | > 23.1 | > 23.1 | > 23.1 | > 23.1 | > 23.1 | > 23.1 | > 23.1 |  | 
[N-]=[N+]=NI1OC(=O)c2ccccc21 | > 100 | > 100 | > 100 | > 100 | > 100 | > 100 | > 100 | > 100 | > 100 |  | > 100 | > 100
O=C(CCC1C(=O)NC(=S)NC1=O)c1ccc2ccccc2c1 | > 100 | > 100 | > 100 | > 100 | > 100 | > 100 | > 100 | > 100 | > 100 | > 100 |  | 
COC(=O)[C@@]1(C(C)CC(=O)O)CCCCC1=O (stereo partly drawn) | > 100 | > 100 | > 100 | > 100 | > 100 | > 100 | > 100 | > 100 | > 100 | > 100 |  | 
CC1=NN(c2nc(N)nc(/C(C#N)=C\c3csc([N+](=O)[O-])c3)n2)C(C)(C)C1 | 53.4 |  | > 100 | > 100 | 76 | > 100 | 90.1 | 39.4 | 81 | > 100 | 56.9 | 64
O=c1[nH]nc(Cc2ccccc2)n1C1CCCC1 | > 100 | > 100 | > 100 | > 100 | > 100 | > 100 | > 100 | > 100 |  | > 100 | > 100 | > 100
[O-]c1c2cc(-[n+]3c(-c4ccccc4)cc(-c4ccccc4)cc3-c3ccccc3)cc1COCCOCCOCCOCCOC2 | 93.5 | > 100 | > 100 | > 100 | > 100 | > 100 | > 100 | > 100 | 44 |  |  | 
CCN(CC)c1ccc2c(c1)Oc1ccc(N(CC)CC)cc1C21Oc2ccccc2-c2c1c1ccccc1n2CC (stereo not drawn) | > 100 | > 100 |  | > 100 | > 100 | > 100 | > 100 | > 100 |  | 25.3 |  | 
